Reference: US9920012B2, “Indazole guanidine F1F0-ATPase inhibitors and therapeutic uses thereof” (Lycera Corporation, priority 2012, dated 2018)
Like-named read-outs stand apart in the source and are kept apart here.

Key:
[1] = biological target: T1, F1F0-ATPase (Bos taurus, UniProt P13621); experiment: Inhibition of F1F0-ATPase activity in synthesizing ATP; assay type: biochemical; conditions: inhibition of ATP synthesis; detection limit IC50=16 μM; read-out: ATP Syn IC50
T1 construct: from tissue
Procedure: (§1) Exemplary compounds described in above Examples were tested for activity against F1F0-ATPase by measuring the ability of the compounds to inhibit ATP synthesis. In addition, the compounds were assessed for cytotoxicity in Ramos cells. Inhibition of F1F0-ATPase activity in synthesizing ATP and cytotoxicity in Ramos cells were measured according to the procedures described in K. M. Johnson et al. Chemistry & Biology 2005, 12, 485-496.

[2] = system: Ramos cells; experiment: Cytotoxicity in Ramos cells; assay type: cell-based; conditions: detection limit EC50=16 μM, read-out: Ramos Cell EC50
Procedure: as §1

| SMILES | IC50 [1] | EC50 [2] | EC50 ([2]; Homo sapiens) |
| --- | --- | --- | --- |
| CC(C)N/C(=N/C(=O)c1cccc(F)c1)Nc1n[nH]c2ccc(C(F)(F)F)cc12 [Compound A-2] | < 5 µM | > 16 µM | – |
| CC1(N/C(=N/C(=O)c2ccc(Cl)cc2)Nc2n[nH]c3ccccc23)CCC1 [Compound A-1] | < 5 µM | – | 5 to 16 µM |
| CC(C)(C)N/C(=N/C(=O)c1ccc(F)c(F)c1)Nc1n[nH]c2cccc(F)c12 [Compound A-5] | < 5 µM | < 5 µM | – |
| CCC(C)NC(=NC(=O)c1ccc(Cl)c(F)c1)Nc1n[nH]c2cc(C(F)(F)F)ccc12 (stereo not shown) [Compound A-16] | < 5 µM | – | 5 to 16 µM |
| CCOCCN/C(=N/C(=O)c1ccc(F)c(F)c1)Nc1n[nH]c2cncc(Cl)c12 [Compound A-44] | > 16 µM | > 16 µM | – |
| CC(C)N/C(=N/C(=O)c1ccc(Cl)c(F)c1)Nc1n[nH]c2cc(C(F)(F)F)ccc12 [Compound A-18] | < 5 µM | > 16 µM | – |
| COC[C@H](C)N/C(=N/C(=O)c1ccc(N2CCOCC2)nc1)Nc1n[nH]c2cc(C(F)(F)F)ccc12 [Compound A-26] | 5 to 16 µM | > 16 µM | – |
| CC(C)(C)N/C(=N/C(=O)c1ccc(C(F)(F)F)cc1)Nc1n[nH]c2ncccc12 [Compound A-62] | > 16 µM | > 16 µM | – |
| O=C(/N=C(\Nc1n[nH]c2cc(C(F)(F)F)ccc12)NC1CCC1)c1ccc(N2CCOCC2)nc1 [Compound A-25] | < 5 µM | – | 5 to 16 µM |
| CC(C)CN/C(=N/C(=O)c1ccc(F)c(F)c1)Nc1n[nH]c2cc(Cl)ccc12 [Compound A-31] | < 5 µM | < 5 µM | – |
| CC(C)CN/C(=N/C(=O)c1ccc(F)c(F)c1)Nc1n[nH]c2cccnc12 [Compound A-46] | > 16 µM | > 16 µM | – |
| CC(C)(C)N/C(=N/C(=O)c1ccc(F)c(F)c1)Nc1n[nH]c2c(C(F)(F)F)cccc12 [Compound A-57] | > 16 µM | 5 to 16 µM | – |
| CC(C)(C)N/C(=N/C(=O)c1ccc(Cl)c(F)c1)Nc1n[nH]c2cc(C(F)(F)F)ccc12 [Compound A-13] | < 5 µM | 5 to 16 µM | – |
| CCOCCN/C(=N/C(=O)c1ccc(F)c(F)c1)Nc1n[nH]c2ccccc12 [Compound A-38] | > 16 µM | > 16 µM | – |
| CC(C)CN/C(=N/C(=O)c1ccc(F)c(F)c1)Nc1n[nH]c2ccc(Br)cc12 [Compound A-67] | < 5 µM | < 5 µM | – |
| CC(C)CN/C(=N/C(=O)c1ccc(N2CCOCC2)nc1)Nc1n[nH]c2cc(C(F)(F)F)ccc12 [Compound A-24] | < 5 µM | 5 to 16 µM | – |
| CCOCCNC(=NC(=O)c1ccc(Cl)cc1)Nc1n[nH]c2cc(C(F)(F)F)ccc12 [Compound A-65] | < 5 µM | – | < 5 µM |
| CC1(CNC(=NC(=O)c2ccc(F)c(F)c2)Nc2n[nH]c3ccc(C(F)(F)F)cc23)COC1 [Compound A-55] | > 16 µM | – | > 16 µM |
| CC(C)CN/C(=N/C(=O)c1ccc2nonc2c1)Nc1n[nH]c2cc(F)ccc12 [Compound A-29] | < 5 µM | > 16 µM | – |
| CCOCCNC(=NC(=O)c1ccc(F)c(F)c1)Nc1n[nH]c2ccc(C(F)(F)F)cc12 [Compound A-54] | < 5 µM | – | > 16 µM |
| CC(C)CN/C(=N/C(=O)c1ccc(F)c(F)c1)Nc1n[nH]c2ncccc12 [Compound A-70] | > 16 µM | > 16 µM | – |

| SMILES | IC50 [1] | EC50 [2] | EC50 ([2]; Homo sapiens) |
| --- | --- | --- | --- |
| COC[C@H](C)N/C(=N/C(=O)c1ccc(F)c(F)c1)Nc1n[nH]c2ccccc12 [Compound A-37] | 5 to 16 µM | > 16 µM | – |
| CCOCCN/C(=N/C(=O)c1ccc(Cl)cc1)Nc1n[nH]c2cc(Cl)ccc12 [Compound A-63] | < 5 µM | 5 to 16 µM | – |
| CC(C)CN/C(=N/C(=O)c1ccc(F)c(F)c1)Nc1n[nH]c2ccc(C(F)(F)F)cc12 [Compound A-51] | < 5 µM | < 5 µM | – |
| CC(C)CN/C(=N/C(=O)c1ccc(Cl)c(F)c1)Nc1n[nH]c2cc(C(F)(F)F)ccc12 [Compound A-14] | < 5 µM | < 5 µM | – |
| CCOCCN/C(=N/C(=O)c1ccc(F)c(F)c1)Nc1n[nH]c2cc(C(F)(F)F)ccc12 [Compound A-12] | < 5 µM | < 5 µM | – |
| COCC(C)NC(=NC(=O)c1ccc(Cl)cc1)Nc1n[nH]c2cc(Cl)ccc12 (stereo not shown) [Compound A-64] | < 5 µM | – | < 5 µM |
| O=C(/N=C(\Nc1n[nH]c2cc(C(F)(F)F)ccc12)NC1CCOCC1)c1ccc(Cl)c(F)c1 [Compound A-21] | < 5 µM | – | 5 to 16 µM |
| CC(C)CN/C(=N/C(=O)c1ccc(F)c(F)c1)Nc1n[nH]c2ccc(F)cc12 [Compound A-4] | < 5 µM | 5 to 16 µM | – |
| CC(C)(C)N/C(=N/C(=O)c1ccc(F)c(F)c1)Nc1n[nH]c2ccc(C(F)(F)F)cc12 [Compound A-50] | < 5 µM | < 5 µM | – |
| CC(C)(C)CN/C(=N/C(=O)c1ccc(F)c(F)c1)Nc1n[nH]c2cncc(Cl)c12 [Compound A-42] | < 5 µM | 5 to 16 µM | – |
| CC(C)(C)CN/C(=N/C(=O)c1ccc(F)c(F)c1)Nc1n[nH]c2ccc(C(F)(F)F)cc12 [Compound A-52] | < 5 µM | < 5 µM | – |
| CCOCCN/C(=N/C(=O)c1ccc(F)c(F)c1)Nc1n[nH]c2cc(Cl)ccc12 [Compound A-61] | < 5 µM | < 5 µM | – |
| CCOCCCNC(=NC(=O)c1ccc(F)c(F)c1)Nc1n[nH]c2cc(C(F)(F)F)ccc12 [Compound A-11] | < 5 µM | < 5 µM | – |
| CC(C)(C)CNC(=NC(=O)c1ccc(F)c(F)c1)Nc1n[nH]c2cccnc12 [Compound A-47] | > 16 µM | – | > 16 µM |
| CC(C)CN/C(=N/C(=O)c1ccc(F)c(F)c1)Nc1n[nH]c2cc(C(F)(F)F)ccc12 [Compound A-8] | < 5 µM | < 5 µM | – |
| COC[C@H](C)N/C(=N/C(=O)c1ccc(Cl)c(F)c1)Nc1n[nH]c2cc(C(F)(F)F)ccc12 [Compound A-17] | < 5 µM | > 16 µM | – |
| COC[C@H](C)N/C(=N/C(=O)c1ccc(F)c(F)c1)Nc1n[nH]c2cncc(F)c12 [Compound A-33] | > 16 µM | > 16 µM | – |
| CCOCCN/C(=N/C(=O)c1ccc(F)c(F)c1)Nc1n[nH]c2cccnc12 [Compound A-49] | > 16 µM | > 16 µM | – |
| CC(C)(C)CNC(=NC(=O)c1ccc2nonc2c1)Nc1n[nH]c2cc(F)ccc12 [Compound A-28] | 5 to 16 µM | – | > 16 µM |
| CC(C)(C)CNC(=NC(=O)c1ccc(F)c(F)c1)Nc1n[nH]c2ccccc12 [Compound A-36] | < 5 µM | – | < 5 µM |

Second part, led by results:

| IC50 [1] | SMILES | EC50 [2] | EC50 ([2]; Homo sapiens) |
| --- | --- | --- | --- |
| 5 to 16 µM | CC(C)CNC(=NC(=O)c1ccc(O)cc1)Nc1n[nH]c2cc(F)ccc12 [Compound A-109] | 5 to 16 µM | – |
| > 16 µM | CCOCCN/C(=N/C(=O)c1ccc(F)c(F)c1)Nc1n[nH]c2c(F)cccc12 [Compound A-75] | > 16 µM | – |
| 5 to 16 µM | CC(C)(C)N/C(=N/C(=O)c1ccc(F)c(F)c1)Nc1n[nH]c2c(F)cccc12 [Compound A-72] | < 5 µM | – |
| < 5 µM | COc1cc(F)c2c(NC(=NC(=O)c3ccc(F)c(F)c3)NC(C)(C)C)n[nH]c2c1 [Compound A-110] | 5 to 16 µM | – |
| 5 to 16 µM | CC(C)CNC(=NC(=O)c1ccc(F)c(F)c1)Nc1n[nH]c2c(F)cccc12 [Compound A-73] | < 5 µM | – |
| < 5 µM | CC(C)(C)NC(=NC(=O)c1cccc(Cl)c1)Nc1n[nH]c2cc(F)ccc12 [Compound A-97] | < 5 µM | – |
| 5 to 16 µM | CCOCCCN/C(=N/C(=O)c1ccc(F)c(F)c1)Nc1n[nH]c2c(F)cccc12 [Compound A-77] | < 5 µM | – |
| < 5 µM | CC(C)(O)CN/C(=N/C(=O)c1ccc(F)c(F)c1)Nc1n[nH]c2cc(F)ccc12 [Compound A-83] | < 5 µM | – |
| < 5 µM | CC(C)CN/C(=N/C(=O)c1cccc(O)c1)Nc1n[nH]c2cc(F)ccc12 [Compound A-95] | 5 to 16 µM | – |
| < 5 µM | O=C(/N=C(/Nc1cc(F)cc(Cl)c1)Nc1n[nH]c2ccccc12)c1ccc(Cl)cc1 [Compound A-111] | – | 5 to 16 µM |
| 5 to 16 µM | CC(C)CN/C(=N/C(=O)c1ccc(O)cc1)Nc1n[nH]c2cc(F)ccc12 [Compound A-91] | > 16 µM | – |
| < 5 µM | COC[C@H](C)N/C(=N/C(=O)c1ccc(F)c(F)c1)Nc1n[nH]c2cc(F)ccc12 [Compound A-79] | < 5 µM | – |
| 5 to 16 µM | COC[C@H](C)N/C(=N/C(=O)c1ccc(O)cc1)Nc1n[nH]c2cc(F)ccc12 [Compound A-89] | 5 to 16 µM | – |
| < 5 µM | COC[C@H](C)NC(=NC(=O)c1cccc(Cl)c1)Nc1n[nH]c2cc(Cl)c(F)cc12 [Compound A-107] | < 5 µM | – |
| < 5 µM | COCC(C)NC(=NC(=O)c1cccc(Cl)c1)Nc1n[nH]c2cc(F)ccc12 (stereo not shown) [Compound A-85] | – | > 16 µM |
| 5 to 16 µM | COC[C@H](C)N/C(=N/C(=O)c1cccc(O)c1)Nc1n[nH]c2cc(F)ccc12 [Compound A-93] | 5 to 16 µM | – |
| < 5 µM | CC(C)CNC(=NC(=O)c1ccc(F)c(F)c1)Nc1n[nH]c2cc(Cl)c(F)cc12 [Compound A-101] | < 5 µM | – |
| < 5 µM | CCOCCN/C(=N/C(=O)c1ccc(F)c(F)c1)Nc1n[nH]c2cc(F)ccc12 [Compound A-81] | < 5 µM | – |
| > 16 µM | CC(C)(O)CN/C(=N/C(=O)c1cccc(O)c1)Nc1n[nH]c2cc(F)ccc12 [Compound A-94] | 5 to 16 µM | – |
| < 5 µM | COC[C@H](C)NC(=NC(=O)c1ccc(F)c(F)c1)Nc1n[nH]c2cc(Cl)c(F)cc12 [Compound A-103] | < 5 µM | – |
| < 5 µM | CC(C)(C)N/C(=N/C(=O)c1cccc(O)c1)Nc1n[nH]c2cc(F)ccc12 [Compound A-96] | < 5 µM | – |
